Patent US11179381B2, “Intranasal administration of physiologically active substances” (DUTCH RENEWABLE ENERGY B.V., priority 2017, dated 2021)

Experiments:
[1] = octanol/water partition coefficient; stated without a test; cited from earlier work
[2] = Blood folate after intranasal spray (Access Folate immunoassay); type: in vivo, human; details: from average increases of Tables 3 and 4 (3.5 wt. % nicotinamide)
Method: Briefly, a serum specimen was treated to release folate from endogenous binding proteins. After neutralization of the reaction mixture, folate-binding protein, mouse antifolate-binding protein, folic acid-alkaline phosphatase conjugate, and goat antimouse capture antibody coupled to paramagnetic particles were added to the reaction vessel. Folate in the sample competes with the folic acid-alkaline phosphatase conjugate for binding sites on a limited amount of folate-binding protein. Resulting complexes bind to the solid phase via mouse antifolate binding protein. […] The instrument used is a Beckman Coulter DXI 800.

[3] = Blood vitamin B12 after intranasal hydroxocobalmin, 500 μg dose (Access Vitamin B12 assay); details: from average increases of Tables 5 and 6 (500 μg dose, 5 wt. % nicotinamide)
[4] = Blood vitamin B12 after intranasal hydroxocobalmin, 75 μg dose (Access Vitamin B12 assay); details: from average increases of Tables 7 and 8 (75 μg dose, 5 wt. % nicotinamide)
[5] = Blood erythropoietin after intranasal rh-Erythropoietin (Access EPO immunoassay); type: in vivo, human; details: from average increases of Tables 9 and 10 (5 wt. % nicotinamide)
Method: As a control a composition comprising 400 μg rh-Erythropoietin was used.
An immunoassay (Access erythropoietin (EPO), Beckman Coultier Inc.) was used to quantify the erythropoietin. Briefly, testing was performed on the Beckman Coulter DxI 800 (Beckman Coulter Inc.). […] The light production is directly proportional to the concentration of EPO in the sample. The amount of analyte in the sample was determined from a stored, multi-point calibration curve. (Instruction manual: Beckman Coulter Access EPO, Beckman Coulter Access Immunoassay Systems, Beckman Coulter, Inc, Fullerton Calif. 2009).

**Q.** For `Nc1nc2ncc(CNc3ccc(C(=O)N[C@@H](CCC(=O)O)C(=O)O)cc3)nc2c(=O)[nH]1` [Folic acid, folic acid], which “log P” value [1] is on record?
**A.** Its value is −0.02.

**Q.** What about the “Increase in absorption relative to control (absence of nicotinamide)” value [2] of the same compound?
**A.** Its value is 184%.

**Q.** Which “Increase in absorption relative to control (absence of nicotinamide)” value [3] does the source give for `C/C1=C2/[N-][C@H]([C@H](CC(N)=O)[C@@]2(C)CCC(=O)NC[C@@H](C)OP(=O)([O-])O[C@H]2[C@@H](O)[C@@H](n3cnc4cc(C)c(C)cc43)O[C@@H]2CO)[C@]2(C)N=C(/C(C)=C3N=C(/C=C4N=C1[C@@H](CCC(N)=O)C\4(C)C)[C@@H](CCC(N)=O)[C@]\3(C)CC(N)=O)[C@@H](CCC(N)=O)[C@]2(C)CC(N)=O.[Co+3].[OH-]` [Hydroxocobalamin, hydroxocobalamin] here?
**A.** The value was 203%.

**Q.** What about the “Increase in absorption relative to control (absence of nicotinamide)” value [4] of the same compound?
**A.** The value was 192%.

**Q.** And the “log P” value [1]?
**A.** The value was −0.9.

**Q.** What does the source list for “Erythropoietin: rh-Erythropoietin, molecular weight 34000”?
**A.** log P [1]: 0; Increase in absorption relative to control (absence of nicotinamide) [5]: 300%
